# Measured values reported in patent US20160184274A1, “Methods for inhibiting mesenchymal phenotype after epithelial-to-mesenchymal transition” (Fibrostatin, S.L., priority 2014, published 2016).
# System: mesenchymal A549 spheroids
# Test: Collagen network in mesenchymal spheroids, confocal microscopy
# Assay type: cell-based, Human
# Description: FIG. 7. T12 disrupts collagen IV network and reduces A549 mesenchymal spheroids viability. A549 spheroids were subjected to EMT induction with TGF-β and TNF-α during 4 days, and treated with T12 (10 μM) or maintained untreated (Cont) for the last 2 days. In A, spheroids were analyzed by immunofluorescence confocal microscopy with anti-α1α2 (IV) antibodies (COL4, white) and DAPI to visualize the cell nuclei (grey). In B, the culture media of the spheroids in A were used for assessing cell death by measuring LDH activity. […] Represented are Means (±SEM).
# Three-dimensional spheroid cultures of A549 cells were obtained using a hanging droplet method (Kelm et al., 2003. Biotechnol. Bioeng. 83: 173-180.; Kumar et al., 2013. PLoS One. 8: e68597). Briefly, cells were grown to approximately 80% confluence on adherent tissue-culture flasks. Then cells were trypsinized, dispersed in DMEM/10% FBS, and counted using an automated cell counter (MOXI® Z, Orflo). The cell suspension was diluted to a 10^6 cells/mL-concentration, and 25 μl of the cell suspension were pipetted onto the underside of a sterile 10-cm tissue culture plate lid. Each lid was loaded with approximately 55 droplets. After loading, the lid was placed onto a tissue culture plate containing 6 mL of sterile PBS (phosphate-buffered saline) and incubated for 48 hours to facilitate spheroid formation. […]
smiles,measurement,setting,value
"COc1ccc(-c2ccc(-c3cccc(C)c3)c(C)c2)c(CCC(=O)O)c1 [T12, 3-[4″-methoxy-3,2′-dimethyl-(1,1′;4′,1″)terphenyl-2″-yl] propionic acid]",collagen IV network formation,"T12 10 μM for the last 2 days of 4-day EMT induction with TGF-β and TNF-α, FIG. 7A",inhibited collagen IV network formation
same,fibrillary collagen I,data not shown,sharply reduced fibrillary collagen I
